Measurements from patent US9212182B2, “Bicyclic sulfonamide compounds as sodium channel inhibitors” (AMGEN INC., priority 2013, dated 2015).

Biological target: Nav 1.7 (Homo sapiens (Human), UniProt Q15858)
Assay: in-vitro Nav 1.7 PX (IC50)
Format: cell-based
Settings: not given

Nav 1.7, sequence (Q15858 whole entry): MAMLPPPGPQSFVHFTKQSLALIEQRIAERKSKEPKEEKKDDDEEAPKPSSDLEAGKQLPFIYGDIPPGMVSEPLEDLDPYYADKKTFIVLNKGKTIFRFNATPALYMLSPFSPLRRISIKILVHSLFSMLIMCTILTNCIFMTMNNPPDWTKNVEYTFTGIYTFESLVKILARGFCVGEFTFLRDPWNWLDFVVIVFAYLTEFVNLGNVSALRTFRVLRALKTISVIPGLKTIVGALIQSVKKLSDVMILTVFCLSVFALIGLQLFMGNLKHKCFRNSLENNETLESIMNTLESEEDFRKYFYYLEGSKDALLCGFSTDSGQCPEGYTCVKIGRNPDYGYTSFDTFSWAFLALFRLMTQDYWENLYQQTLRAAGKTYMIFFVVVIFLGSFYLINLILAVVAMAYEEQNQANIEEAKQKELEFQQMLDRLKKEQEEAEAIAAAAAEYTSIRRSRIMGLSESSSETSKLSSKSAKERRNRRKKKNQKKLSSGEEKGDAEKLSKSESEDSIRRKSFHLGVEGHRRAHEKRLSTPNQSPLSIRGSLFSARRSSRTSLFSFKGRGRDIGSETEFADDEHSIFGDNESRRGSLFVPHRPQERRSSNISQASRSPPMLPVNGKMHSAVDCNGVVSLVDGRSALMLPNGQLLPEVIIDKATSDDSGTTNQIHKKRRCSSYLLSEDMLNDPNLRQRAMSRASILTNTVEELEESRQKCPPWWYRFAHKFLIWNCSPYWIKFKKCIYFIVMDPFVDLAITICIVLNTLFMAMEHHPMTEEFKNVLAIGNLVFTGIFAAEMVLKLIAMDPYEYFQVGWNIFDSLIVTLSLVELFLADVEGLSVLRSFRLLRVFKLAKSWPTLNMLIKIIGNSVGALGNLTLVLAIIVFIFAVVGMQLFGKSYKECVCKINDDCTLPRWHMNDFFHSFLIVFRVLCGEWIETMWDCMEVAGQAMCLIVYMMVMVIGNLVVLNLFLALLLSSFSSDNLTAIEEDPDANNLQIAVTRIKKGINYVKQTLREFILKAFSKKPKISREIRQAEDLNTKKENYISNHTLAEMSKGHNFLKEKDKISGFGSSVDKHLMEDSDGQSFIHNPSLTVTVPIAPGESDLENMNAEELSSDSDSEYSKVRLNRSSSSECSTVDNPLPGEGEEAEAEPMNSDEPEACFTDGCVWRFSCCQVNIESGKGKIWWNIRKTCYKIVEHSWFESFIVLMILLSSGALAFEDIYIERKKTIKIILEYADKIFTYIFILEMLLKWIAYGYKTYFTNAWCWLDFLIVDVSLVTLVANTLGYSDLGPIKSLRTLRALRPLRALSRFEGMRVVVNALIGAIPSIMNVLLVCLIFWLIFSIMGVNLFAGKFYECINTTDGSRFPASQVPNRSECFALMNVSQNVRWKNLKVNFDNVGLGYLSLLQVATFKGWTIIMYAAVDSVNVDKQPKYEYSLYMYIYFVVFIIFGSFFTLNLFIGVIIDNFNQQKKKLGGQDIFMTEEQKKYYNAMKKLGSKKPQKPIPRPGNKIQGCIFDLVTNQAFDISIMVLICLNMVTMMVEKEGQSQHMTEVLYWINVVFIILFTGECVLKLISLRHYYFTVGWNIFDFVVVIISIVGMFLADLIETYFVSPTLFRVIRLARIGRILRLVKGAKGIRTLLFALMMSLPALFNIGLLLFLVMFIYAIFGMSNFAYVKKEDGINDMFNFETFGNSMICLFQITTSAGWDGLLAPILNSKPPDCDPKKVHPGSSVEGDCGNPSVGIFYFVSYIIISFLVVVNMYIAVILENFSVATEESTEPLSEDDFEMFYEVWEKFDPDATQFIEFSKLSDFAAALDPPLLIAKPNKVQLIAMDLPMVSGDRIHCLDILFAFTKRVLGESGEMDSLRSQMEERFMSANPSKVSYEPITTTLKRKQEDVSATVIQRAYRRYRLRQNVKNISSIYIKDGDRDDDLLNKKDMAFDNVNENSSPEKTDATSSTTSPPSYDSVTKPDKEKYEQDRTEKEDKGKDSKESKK

First: COc1cc(-c2ccc(Cl)c(C)c2)c(C)cc1-n1c(=O)ccc2cc(S(=O)(=O)Nc3ccon3)ccc21 (atropisomer, axis not shown; (M)) [Example 422, (M)-1-(4′-chloro-5-methoxy-2,3′-dimethyl-4-biphenylyl)-N-3-isoxazolyl-2-oxo-1,2-dihydro-6-quinolinesulfonamide]
Second: COc1cc(-c2cccc(F)c2)c(C)cc1-n1c(=O)ccc2cc(S(=O)(=O)Nc3ccon3)ccc21 (atropisomer, axis not shown; (P)) [Example 427, (P)-1-(3′-fluoro-5-methoxy-2-methyl-4-biphenylyl)-N-3-isoxazolyl-2-oxo-1,2-dihydro-6-quinolinesulfonamide]
The IC50 of the first is 240-fold higher: 6090 nM for the first, 25 nM for the second. The second is the more potent here.

First: COc1cc(-c2ccc(Cl)c(C)c2)c(F)cc1-n1c(=O)c(OC)cc2cc(S(=O)(=O)Nc3ccon3)ccc21 (atropisomer, axis not shown; (P)) [Example 414, (P)-1-(4′-chloro-2-fluoro-5-methoxy-3′-methyl-[1,1′-biphenyl]-4-yl)-N-(isoxazol-3-yl)-3-methoxy-2-oxo-1,2-dihydroquinoline-6-sulfonamide]
Second: CCOc1cc(-c2cccc(F)c2)c(F)cc1-n1c(=O)ccc2cc(S(=O)(=O)Nc3ccon3)ccc21 (atropisomer, axis not shown; (M)) [Example 389, (M)-1-(5-ethoxy-2,3′-difluoro-[1,1′-biphenyl]-4-yl)-N-(isoxazol-3-yl)-2-oxo-1,2-dihydroquinoline-6-sulfonamide]
The IC50 of the first is 18-fold lower: 13 nM for the first, 239 nM for the second. The first is the more potent here.

First: COc1ccc(-c2cccc(C(F)(F)F)c2)cc1-n1c(=O)ccc2cc(S(=O)(=O)Nc3ccon3)ccc21 (atropisomer, axis not shown; (M)) [Example 382, (M)-N-3-isoxazolyl-1-(4-methoxy-3′-(trifluoromethyl)-3-biphenylyl)-2-oxo-1,2-dihydro-6-quinolinesulfonamide]
Second: COc1cc(C[C@H]2CCOC2)c(F)cc1-n1c(=O)ccc2cc(S(=O)(=O)Nc3ccon3)ccc21 (atropisomer, axis not shown; (P)) [Example 1234, (P)-1-(5-fluoro-2-methoxy-4-((3S)-tetrahydro-3-furanylmethyl)phenyl)-N-3-isoxazolyl-2-oxo-1,2-dihydro-6-quinolinesulfonamide]
The IC50 of the first is 2.7-fold higher: 3080 nM for the first, 1140 nM for the second. The second is the more potent here.

Same assay, conditions: in-vitro Nav 1.7 PX data

Compared with `COc1cc(-c2ccc(Cl)c(C#N)c2)c(F)cc1-n1c(=O)ccc2cc(S(=O)(=O)Nc3ncc(F)cn3)ccc21` [Example 893, 1-(4′-chloro-3′-cyano-2-fluoro-5-methoxy-4-biphenylyl)-N-(5-fluoro-2-pyrimidinyl)-2-oxo-1,2-dihydro-6-quinolinesulfonamide], `COc1cc(-c2ccc(F)c(C)c2)c(F)cc1-n1c(=O)ccc2cc(S(=O)(=O)Nc3ncc(F)cn3)ccc21` [Example 942, 1-(2,4′-difluoro-5-methoxy-3′-methyl-4-biphenylyl)-N-(5-fluoro-2-pyrimidinyl)-2-oxo-1,2-dihydro-6-quinolinesulfonamide] is 2.4-fold higher in IC50: 13 nM for the first, 31 nM for the second.

`COc1cc(-c2cccc(C(F)(F)F)c2)c(F)cc1-n1c(=O)ccc2cc(S(=O)(=O)Nc3ncc(F)cn3)ccc21` [Example 802, 1-(2-fluoro-5-methoxy-3′-(trifluoromethyl)-4-biphenylyl)-N-(5-fluoro-2-pyrimidinyl)-2-oxo-1,2-dihydro-6-quinolinesulfonamide] and `COc1cc(Cl)cc(-c2cc(OC)c(-n3c(=O)ccc4cc(S(=O)(=O)Nc5ncc(F)cn5)ccc43)cc2F)c1` [Example 929, 1-(3′-chloro-2-fluoro-5,5′-dimethoxy-4-biphenylyl)-N-(5-fluoro-2-pyrimidinyl)-2-oxo-1,2-dihydro-6-quinolinesulfonamide] are within 1.5-fold of each other in IC50: 21 nM for the first, 23 nM for the second.

First: COc1cc(Cl)cc(-c2ccc(-n3c(=O)ccc4cc(S(=O)(=O)Nc5ncccn5)ccc43)c(OC)c2)c1 [Example 923, 1-(3′-chloro-3,5′-dimethoxy-4-biphenylyl)-2-oxo-N-2-pyrimidinyl-1,2-dihydro-6-quinolinesulfonamide]
Second: COc1cc(Cl)cc(-c2ccc(-n3c(=O)ccc4cc(S(=O)(=O)Nc5cccnn5)ccc43)c(OC)c2)c1 [Example 928, 1-(3′-chloro-3,5′-dimethoxy-4-biphenylyl)-2-oxo-N-3-pyridazinyl-1,2-dihydro-6-quinolinesulfonamide]
The IC50 of the first is 1.5-fold higher: 12 nM for the first, 8 nM for the second. The second is the more potent here.

Compared with `COc1cc(C#CC(C)(C)C)c(F)cc1-n1c(=O)ccc2cc(S(=O)(=O)Nc3ccon3)ccc21` [Example 1122, 1-(4-(3,3-dimethyl-1-butyn-1-yl)-5-fluoro-2-methoxyphenyl)-N-3-isoxazolyl-2-oxo-1,2-dihydro-6-quinolinesulfonamide], `COc1cc(-c2cc(Cl)ccc2C)c(F)cc1-n1c(=O)ccc2cc(S(=O)(=O)Nc3ccon3)ccc21` [Example 743, 1-(5′-chloro-2-fluoro-5-methoxy-2′-methyl-4-biphenylyl)-N-3-isoxazolyl-2-oxo-1,2-dihydro-6-quinolinesulfonamide] is 16-fold lower in IC50: 80 nM for the first, 5 nM for the second. The second is the more potent here.

`COc1cc(-c2ccc(F)c(C#N)c2)ccc1-n1c(=O)ccc2cc(S(=O)(=O)Nc3ccon3)ccc21` [Example 1020, 1-(3′-cyano-4′-fluoro-3-methoxy-4-biphenylyl)-N-3-isoxazolyl-2-oxo-1,2-dihydro-6-quinolinesulfonamide] and `COc1cc(-c2ccc(-n3c(=O)ccc4cc(S(=O)(=O)Nc5ccon5)ccc43)c(OC)c2)ccc1F` [Example 1017, 1-(4′-fluoro-3,3′-dimethoxy-4-biphenylyl)-N-3-isoxazolyl-2-oxo-1,2-dihydro-6-quinolinesulfonamide] are within 1.5-fold of each other in IC50: 82 nM for the first, 80 nM for the second.

First: COc1cc(-c2ccc(Cl)cc2)ccc1-n1c(=O)ccc2cc(S(=O)(=O)Nc3ccnc(C)n3)ccc21 [Example 768, 1-(4′-chloro-3-methoxy-4-biphenylyl)-N-(2-methyl-4-pyrimidinyl)-2-oxo-1,2-dihydro-6-quinolinesulfonamide]
Second: COc1cc(-c2cccc(C(F)(F)F)c2)ccc1-n1c(=O)ccc2cc(S(=O)(=O)Nc3ncon3)ccc21 [Example 919, 1-(3-methoxy-3′-(trifluoromethyl)-4-biphenylyl)-N-1,2,4-oxadiazol-3-yl-2-oxo-1,2-dihydro-6-quinolinesulfonamide]
The IC50 of the first is 2.4-fold higher: 52 nM for the first, 22 nM for the second. The second is the more potent here.

`COc1cc(-c2cc(OC)c(-n3c(=O)ccc4cc(S(=O)(=O)Nc5ccon5)ccc43)cc2F)c(Cl)cn1` [Example 759, 1-(4-(5-chloro-2-methoxy-4-pyridinyl)-5-fluoro-2-methoxyphenyl)-N-3-isoxazolyl-2-oxo-1,2-dihydro-6-quinolinesulfonamide] and `COc1cc(F)ccc1-c1cc(OC)c(-n2c(=O)ccc3cc(S(=O)(=O)Nc4ccon4)ccc32)cc1F` [Example 741, 1-(2,4′-difluoro-2′,5-dimethoxy-4-biphenylyl)-N-3-isoxazolyl-2-oxo-1,2-dihydro-6-quinolinesulfonamide] are within 1.5-fold of each other in IC50: 100 nM for the first, 71 nM for the second.

Compared with `COc1cc(C#CC2CCCC2)c(F)cc1-n1c(=O)ccc2cc(S(=O)(=O)Nc3ncc(F)cn3)ccc21` [Example 1135, 1-(4-(cyclopentylethynyl)-5-fluoro-2-methoxyphenyl)-N-(5-fluoro-2-pyrimidinyl)-2-oxo-1,2-dihydro-6-quinolinesulfonamide], `COc1cc(CC2CCCCC2)c(F)cc1-n1c(=O)ccc2cc(S(=O)(=O)Nc3cnccn3)ccc21` [Example 1116, 1-(4-(cyclohexylmethyl)-5-fluoro-2-methoxyphenyl)-2-oxo-N-2-pyrazinyl-1,2-dihydro-6-quinolinesulfonamide] is 3.8-fold lower in IC50: 114 nM for the first, 30 nM for the second. The second is the more potent here.

`COc1nc(-c2cc(F)cc(Cl)c2)c(Cl)cc1-n1c(=O)ccc2cc(S(=O)(=O)Nc3ccon3)ccc21` [Example 1070, 1-(5-chloro-6-(3-chloro-5-fluorophenyl)-2-methoxy-3-pyridinyl)-N-3-isoxazolyl-2-oxo-1,2-dihydro-6-quinolinesulfonamide] was tested, and the IC50 was 12 nM.

Same assay, conditions: in-vitro Nav 1.7 PX data (PatchXpress)

First: COc1cc(-c2cccc(F)c2Cl)ccc1-n1c(=O)ccc2cc(S(=O)(=O)Nc3ccon3)ccc21 [Example 1058, 1-(2′-chloro-3′-fluoro-3-methoxy-4-biphenylyl)-N-3-isoxazolyl-2-oxo-1,2-dihydro-6-quinolinesulfonamide]
Second: COc1cc(-c2ccc(-n3c(=O)ccc4cc(S(=O)(=O)Nc5cccnn5)ccc43)c(OC)c2)ccc1Cl [Example 1038, 1-(4′-chloro-3,3′-dimethoxy-4-biphenylyl)-2-oxo-N-3-pyridazinyl-1,2-dihydro-6-quinolinesulfonamide]
The IC50 of the first is 1.5-fold lower: 38 nM for the first, 58 nM for the second. The first is the more potent here.

Same assay, conditions: in-vitro PatchXpress (PX)

Going from `COc1cc(-c2ccc(C)c(Cl)c2)c(F)cc1-n1c(=O)ccc2cc(S(=O)(=O)Nc3ccon3)ccc21` (atropisomer, axis not shown; (M)) [Example 529, (M)-1-(3′-chloro-2-fluoro-5-methoxy-4′-methyl-4-biphenylyl)-N-3-isoxazolyl-2-oxo-1,2-dihydro-6-quinolinesulfonamide] to `COc1cc(-c2ccc(C#N)c(Cl)c2)c(F)cc1-n1c(=O)ccc2cc(S(=O)(=O)Nc3ccon3)ccc21` (atropisomer, axis not shown; (P)) [Example 520, (P)-1-(3′-chloro-4′-cyano-2-fluoro-5-methoxy-4-biphenylyl)-N-3-isoxazolyl-2-oxo-1,2-dihydro-6-quinolinesulfonamide], the IC50 falls from 3150 nM to 26 nM (120-fold). The second is the more potent here.

Compared with `COc1cc(-c2ccc(Cl)c(C)c2)c(Cl)cc1-n1c(=O)ccc2cc(S(=O)(=O)Nc3ccncn3)ccc21` (atropisomer, axis not shown; (P)) [Example 367, (P)-1-(2,4′-dichloro-5-methoxy-3′-methyl-4-biphenylyl)-2-oxo-N-4-pyrimidinyl-1,2-dihydro-6-quinolinesulfonamide], `COc1cc(-c2cccc(C)c2)c(F)cc1-n1c(=O)ccc2cc(S(=O)(=O)Nc3ccon3)ccc21` (atropisomer, axis not shown; (P)) [Example 522, (P)-1-(2-fluoro-5-methoxy-3′-methyl-4-biphenylyl)-N-3-isoxazolyl-2-oxo-1,2-dihydro-6-quinolinesulfonamide] is 3-fold higher in IC50: 3 nM for the first, 9 nM for the second.

`COc1cc(-c2ccncc2)c(F)cc1-n1c(=O)ccc2cc(S(=O)(=O)Nc3ccon3)ccc21` [Example 505, 1-(5-fluoro-2-methoxy-4-(4-pyridinyl)phenyl)-N-3-isoxazolyl-2-oxo-1,2-dihydro-6-quinolinesulfonamide] gave an IC50 of 1800 nM.
